Source: ChEMBL document CHEMBL1125779, “Synthesis and evaluation of some nitrobenzenesulfonamides containing nitroisopropyl and (ureidooxy)methyl groups as novel hypoxic cell selective cytotoxic agents” (J Med Chem, 1991)

assay: Partition coefficient was measured in n-octanol at the PH 7.4 buffer; type: physicochemical; details: octanol/water

Row | Compound | Partition coefficient
1 | CN(CCN)S(=O)(=O)c1ccc(C(C)(C)[N+](=O)[O-])c([N+](=O)[O-])c1 | 0.37
2 | CNCCN(C)S(=O)(=O)c1ccc(CONC(N)=O)c([N+](=O)[O-])c1 | 0.28
3 | O=[N+]([O-])c1nccn1CC(O)CN1CCCCC1 (stereo not drawn) [PIMONIDAZOLE] | 0.4
